Entries after “also recorded” stand apart in the source; their conditions may differ. Like-named read-outs stand apart in the source and are kept apart here. Square brackets hold non-standard residues; d marks the D form. Ends that are not written are not given here.
What was measured:
[1] = system: enzymes involved in the formation of LPA; experiment: Microarray of gene expression in the small intestine; type: in vivo, mice; conditions: Western Diet or chow, D-4F in drinking water
Protocol: To explore the mechanism of action, a microarray experiment to determine gene expression levels in the small intestine from mice fed the Western Diet or a chow diet and given or not given D-4F in their drinking water was performed. It was previously shown that D-4F administration reduces LPA levels similar to transgenic 6F tomatoes.

LDLR−/− mice [2] = conditions: cited from earlier work; for intact peptide in plasma after oral administration: mouse, in vivo; for inflammatory properties of HDL and LDL in a cell-based assay: single dose 5 mg/kg by stomach tube, four hours, 5 mg/kg
LDLR−/− mice [3] = conditions: cited from earlier work
[4] = in vivo; cited from earlier work
[5] = system: apolipoprotein (apo)E null mice; conditions: cited from earlier work
[6] = system: LDL-induced monocyte chemoattractant protein-1 (MCP-1) production by cultured human artery wall cells; conditions: cited from earlier work
[7] = system: apoE−/− mice made diabetic; conditions: oral administration; cited from earlier work
cholesterol-fed rabbits = conditions: 10 mg/kg/day; cited from earlier work
mice [8] = experiment: 4F peptide without end groups in mice; type: in vivo
Text: The 4F peptide (Ac-D-W-F-K-A-F-Y-D-K-V-A-E-K-F-K-E-A-F-NH2, (SEQ ID NO:1)) has end blocking groups (Ac— and —NH2) that stabilize the class A amphipathic helix and dramatically increase efficacy (Venkatachalapathi et al. (1993) Proteins Structure Function Genet. 15: 349-359; Yancey et al. (1995) Biochemistry. 34: 7955-7965; Datta et al. (2001) J. Lipid Res. 42: 1096-1104; Anantharamaiah et al. (2007) J. Lipid Res., 48: 1915-1923). […] The required end (protecting) groups for 4F and for a number of other apoA-I mimetic peptides (Navab et al. (2010) Arterioscler. Thromb. Vasc. Biol. 30: 164-168) can only be added by chemical synthesis; living organisms cannot be engineered to make a molecule containing these end groups. Thus, the production of peptide for clinical use at these doses would not be practical because of the cost of producing this amount of peptide by solid phase synthesis.
Unfortunately, producing sufficient peptide to make therapy in humans practical was not likely because the 4F peptide requires end blocking groups that can only be added through chemical synthesis. […] This led us to seek alternative peptides synthesized from all L-amino acids that might be effective without end blocking groups.

human artery wall cells = conditions: cited from earlier work; for inhibition of LDL-induced MCP-1 production by cultured human artery wall cells: Datta et al. (2001); for inhibiting monocyte chemotactic activity production by human artery wall cells exposed to human LDL: FIG. 1, adapted from Datta et al. (2001)
mice [9] = conditions: mouse, in vivo; cited from earlier work
apoE−/− mice [10] = conditions: cited from earlier work
[11] = system: mouse model of ovarian cancer; conditions: cited from earlier work
apoE−/− mice [12] = conditions: cited from earlier work; remark: listed apart in the source
[13] = Identification and quantification of 6F in small intestine and plasma; type: in vivo, mice
Protocol: Female LDLR−/− mice 8-9 months of age (n=6) were fasted overnight and fed WD with transgenic 6F lyophilized tomato powder added to WD to provide 900 μg of 6F in 2 grams of diet. Over a period of 30-90 minutes, each mouse ate all of the 2 grams of diet. Approximately 2 hours after finishing the food the mice were bled and the small intestine was obtained (including contents), homogenized in acetonitrile:water (1:1), chromatographed by HPLC and subjected to SDS PAGE as described in Materials and Methods of Example 3. Plasma was lyophilized and resuspended in acetonitrile:water (1:1), chromatographed by HPLC and subjected to SDS PAGE as described in Materials and Methods of Example 3. […] The lanes were scanned for quantification as described in Materials and Methods of Example 3.
For analysis of the small intestine, 200 mg of small intestine (including contents) were homogenized in 10 mL of acetonitrile:water (1:1) and the homogenates were lyophilized and re-suspended in 400 μL of acetonitrile:water (1:1). […] Samples were run on HPLC using a C-18 Reverse Phase analytical column and a gradient solvent system of acetonitrile: water (30% to 80% in 20 min) in the presence of 0.1% TFA and monitored at 280 nm. […]
The data presented above indicate that the peptide in the transgenic 6F tomatoes is acting in the small intestine. […] No 6F peptide was detected in the plasma of any of the six mice. […]

[14] = doses of 4.5 and 45 mg/kg, oral or SQ

What does the source list for “Ac-D-W-F-K-A-F-Y-D-K-V-A-E-K-F-K-E-A-F-NH2 [D-4F] (Ac-[dD][dW][dF][dK][dA][dF][dY][dD][dK][dV][dA][dE][dK][dF][dK][dE][dA][dF]-NH2) [4F peptide synthesized from all D-amino acids]”?
expression of enzymes involved in the formation of LPA [1]: none of the enzymes involved in the formation of LPA changed their expression significantly; intact peptide in plasma after oral administration (LDLR−/− mice [2]): intact peptide identified; inflammatory properties of HDL and LDL in a cell-based assay (LDLR−/− mice [2]): dramatically and significantly improved; changes in SAA, triglycerides, HDL-cholesterol and paroxonase activity induced by feeding 15-HETE in chow (LDLR−/− mice [3]; SQ D-4F, chow without WD): significantly ameliorated; HDL-cholesterol (LDLR−/− mice [3]; SQ or oral): increased; plasma SAA levels (LDLR−/− mice [3]; SQ or oral): reduced; plasma triglyceride levels (LDLR−/− mice [3]; SQ or oral): reduced; levels of 20-HETE (LDLR−/− mice [3]; SQ or orally): unchanged; levels of free metabolites of arachidonic and linoleic acids in intestine, liver and hepatic bile (LDLR−/− mice [3]; SQ or orally): significantly reduced; clearance from tissues, particularly liver and kidney [4]: delayed clearance; reduction of aortic atherosclerosis ([5]; 45 mg/kg/day, Western diet, orally or SQ): ~50%; plasma levels of SAA ([5]; 45 mg/kg/day, Western diet): significantly reduced; plasma levels of lysophosphatidic acid ([5]; 45 mg/kg/day, Western diet): significantly reduced; HDL inflammatory index ([5]; doses of 0.15 or 0.45 mg/kg): did not; plasma serum amyloid A (SAA) levels ([5]; doses of 0.15 or 0.45 mg/kg): did not; HDL inflammatory index [5, 14]: significantly reduced; plasma serum amyloid A (SAA) levels [5, 14]: significantly reduced; HDL inflammatory index (HII) ([6]; oral doses of 0.43 and 1.43 mg/kg): not effective; HDL inflammatory index (HII) ([6]; oral doses of 4.3 and 7.14 mg/kg): significantly improved; aortic atherosclerosis [7]: significantly decreased; hepatic content of free arachidonic acid and free oxidized fatty acids [7]: significantly decreased; other plasma lipid or lipoprotein levels [7]: without affecting; efficacy of L-4F and D-4F by injection (cholesterol-fed rabbits): identical

For “DWFKAFYDKVAEKFKEAF [4F peptide without end blocking groups, 4F peptide lacking the Ac- and -NH2 end groups]”, which “activity of the peptide without end blocking groups” value (mice [8]; mouse models, data not shown) is on record?
The value was “dramatically reduced”.

What does the source list for “DWLKAFYDKVFEKFKEFF [5F, apoA-I mimetic peptide]”?
inhibition of LDL-induced MCP-1 production by cultured human artery wall cells (human artery wall cells): able to efficiently inhibit; inhibiting monocyte chemotactic activity production by human artery wall cells exposed to human LDL (human artery wall cells): indistinguishable; diet induced atherosclerosis in mice (mice [9]): inhibiting atherosclerosis; tumor angiogenesis in mice (mice [9]): inhibiting tumor angiogenesis

What does the source list for “Ac-D-W-F-K-A-F-Y-D-K-V-A-E-K-F-K-E-A-F-NH2 (Ac-DWFKAFYDKVAEKFKEAF-NH2) [4F]”?
plasma levels of free oxidized fatty acids (5-HETE, 15-HETE, 9-HODE, 13-HODE) (apoE−/− mice [10]; after administration of the 4F peptide): significantly decreased; esterified oxidized fatty acid levels (apoE−/− mice [10]; mouse, in vivo): unchanged; plasma levels of 20-HETE (apoE−/− mice [10]; mouse, in vivo): did not decrease; fold less effective in vivo in the absence of the end groups (mice [8]; mice, without Ac- and -NH2 end groups, unpublished studies): 25,000 fold; number of tumor nodules ([11]; mouse, in vivo): reduction; tumor volume ([11]; mouse, in vivo): significant reduction; inhibition of LDL-induced MCP-1 production by cultured human artery wall cells (human artery wall cells): highly effective; inhibiting monocyte chemotactic activity production by human artery wall cells exposed to human LDL (human artery wall cells): indistinguishable

For “Ac-D-W-F-K-A-F-Y-D-K-V-A-E-K-F-K-E-A-F-NH2 [L-4F] (Ac-DWFKAFYDKVAEKFKEAF-NH2) [4F peptide synthesized from all L-amino acids]”, which “intact peptide in plasma after oral administration” value (LDLR−/− mice [2]) is on record?
The value was “virtually no intact peptide”.

What about the “inflammatory properties of HDL and LDL in a cell-based assay” value (LDLR−/− mice [2]) of the same substance?
Its value is “not”.

And the “clearance from tissues, particularly liver and kidney” value [4]?
The value was “this was not the case”.

And the aortic lesions (apoE−/− mice [12]; L-4F administered with niclosamide)?
Its aortic lesions is “induced lesion regression”.

What about the aortic atherosclerosis (apoE−/− mice [12]; in chow 10 mg/kg/day for six months with low dose statin in drinking water) of the same substance?
The aortic atherosclerosis was “did not significantly change”.

What about the LPA levels ([11]; L-4F containing blocking groups, b323: in mouse chow, 100 mg/kg/day) of the same substance?
The LPA levels was “significantly reduced; also recorded: significantly decreased”.

And the tumor burden ([11]; in mouse chow, 100 mg/kg/day)?
The tumor burden was “significantly decreased”.

What about the “HDL inflammatory index (HII)” value ([6]; 0.042-1.43 mg/kg IV or SQ) of the same substance?
The value was “no improvement”.

And the “efficacy of L-4F and D-4F by injection” value (cholesterol-fed rabbits)?
The value was “identical”.

Which “inhibition of LDL-induced MCP-1 production by cultured human artery wall cells” value (human artery wall cells) does the source give for “DWFKAFYDKFFEKFKEFF [7F, apoA-I mimetic peptide]” here?
The value was “did not”.

Which “inhibition of LDL-induced MCP-1 production by cultured human artery wall cells” value (human artery wall cells) does the source give for “DWLKAFYDKVAEKLKEAF [2F, apoA-I mimetic peptide with phenylalanine at positions 6 and 18]” here?
The value was “not very effective”.

What about the “diet induced atherosclerosis in mice” value (mice [9]) of the same substance?
Its value is “failed to decrease”.

Which “6F peptide in the plasma (not detected; lower limit of detection)” value ([13]; ~2 hours after eating 900 μg of 6F in transgenic 6F tomato powder) does the source give for “DWLKAFYDKFFEKFKEFF [6F, D-W-L-K-A-F-Y-D-K-F-F-E-K-F-K-E-F-F]” here?
The value was less than 100 ng/mL.

And the “intact 6F peptide in the small intestine (Mean±SD)” value ([13]; ~2 hours after eating 900 μg of 6F in transgenic 6F tomato powder in 2 grams of WD, n=6)?
The value was 15.6±7.4 μg 6F per 200 mg small intestine.
